Experiment: xn = mol fraction of the nth substance listed
Settings: Liquid

CCCCO [butan-1-ol] + O=C=O
Settings | mass density [kg/m3]
323.07 K, 16977 kPa, x2 = 0.0857 | 807.17
323.07 K, 18030 kPa, x2 = 0.0857 | 808.01
323.07 K, 18995 kPa, x2 = 0.0857 | 808.74
323.07 K, 19987 kPa, x2 = 0.0857 | 809.54
323.07 K, 21040 kPa, x2 = 0.0857 | 810.38
323.07 K, 21992 kPa, x2 = 0.0857 | 811.09
323.07 K, 23011 kPa, x2 = 0.0857 | 811.87
323.07 K, 24000 kPa, x2 = 0.0857 | 812.6
323.07 K, 25007 kPa, x2 = 0.0857 | 813.42
323.1 K, 10109 kPa, x2 = 0.4972 | 818.96
323.1 K, 11078 kPa, x2 = 0.4972 | 820.55
323.1 K, 11078 kPa, x2 = 0.5965 | 822.9
323.1 K, 12051 kPa, x2 = 0.4972 | 822.08
323.1 K, 12072 kPa, x2 = 0.5965 | 825.03
323.1 K, 12077 kPa, x2 = 0.8663 | 777.48
323.1 K, 13046 kPa, x2 = 0.8663 | 787.33
323.1 K, 13049 kPa, x2 = 0.4972 | 823.64
323.1 K, 13059 kPa, x2 = 0.5965 | 827.1
323.1 K, 14029 kPa, x2 = 0.8663 | 796.15
323.1 K, 14053 kPa, x2 = 0.4972 | 825.18
323.1 K, 14067 kPa, x2 = 0.5965 | 829.16
323.1 K, 15041 kPa, x2 = 0.4972 | 826.62
323.1 K, 15050 kPa, x2 = 0.8663 | 804.37
323.1 K, 15063 kPa, x2 = 0.5965 | 831.15
323.1 K, 16046 kPa, x2 = 0.5965 | 833.04
323.1 K, 16058 kPa, x2 = 0.4972 | 828.14
323.1 K, 16077 kPa, x2 = 0.8663 | 811.86
323.1 K, 17030 kPa, x2 = 0.5965 | 834.9
323.1 K, 17044 kPa, x2 = 0.8663 | 818.37
323.1 K, 17051 kPa, x2 = 0.4972 | 829.54
323.1 K, 18024 kPa, x2 = 0.8663 | 824.54
323.1 K, 18049 kPa, x2 = 0.5965 | 836.78
323.1 K, 18061 kPa, x2 = 0.4972 | 830.96
323.1 K, 19022 kPa, x2 = 0.4972 | 832.33
323.1 K, 19033 kPa, x2 = 0.8663 | 830.52
323.1 K, 19044 kPa, x2 = 0.5965 | 838.57
323.1 K, 20021 kPa, x2 = 0.4972 | 833.69
323.1 K, 20028 kPa, x2 = 0.8663 | 835.95
323.1 K, 20039 kPa, x2 = 0.5965 | 840.32
323.1 K, 21026 kPa, x2 = 0.8663 | 841.13
323.1 K, 21047 kPa, x2 = 0.4972 | 835.06
323.1 K, 21064 kPa, x2 = 0.5965 | 842.09
323.1 K, 22036 kPa, x2 = 0.4972 | 836.36
323.1 K, 22041 kPa, x2 = 0.5965 | 843.75
323.1 K, 22054 kPa, x2 = 0.8663 | 846.3
323.1 K, 23023 kPa, x2 = 0.5965 | 845.38
323.1 K, 23023 kPa, x2 = 0.8663 | 850.85
323.1 K, 23045 kPa, x2 = 0.4972 | 837.69
323.1 K, 23996 kPa, x2 = 0.4972 | 838.91
323.1 K, 24006 kPa, x2 = 0.8663 | 855.33
323.1 K, 24008 kPa, x2 = 0.5965 | 847
323.1 K, 25012 kPa, x2 = 0.4972 | 840.21
323.1 K, 25040 kPa, x2 = 0.5965 | 848.65
323.1 K, 25041 kPa, x2 = 0.8663 | 859.75
332.94 K, 1010 kPa, x2 = 0.0251 | 781.57
332.94 K, 2077 kPa, x2 = 0.0251 | 782.55
332.94 K, 3046 kPa, x2 = 0.0251 | 783.47
332.94 K, 3990 kPa, x2 = 0.0251 | 784.3
332.94 K, 5002 kPa, x2 = 0.0251 | 785.22
332.94 K, 6026 kPa, x2 = 0.0251 | 786.15
332.94 K, 6975 kPa, x2 = 0.0251 | 786.98
332.94 K, 8009 kPa, x2 = 0.0251 | 787.91
332.94 K, 9084 kPa, x2 = 0.0251 | 788.83
332.94 K, 9985 kPa, x2 = 0.0251 | 789.62
332.94 K, 11024 kPa, x2 = 0.0251 | 790.52
332.94 K, 12040 kPa, x2 = 0.0251 | 791.34
332.94 K, 12968 kPa, x2 = 0.0251 | 792.12
332.94 K, 12999 kPa, x2 = 0.9698 | 600.03
332.94 K, 13994 kPa, x2 = 0.0251 | 792.95
332.94 K, 14036 kPa, x2 = 0.9698 | 638.84
332.94 K, 15021 kPa, x2 = 0.9698 | 667.05
332.94 K, 15041 kPa, x2 = 0.0251 | 793.85
332.94 K, 16014 kPa, x2 = 0.9698 | 689.92
332.94 K, 16061 kPa, x2 = 0.0251 | 794.54
332.94 K, 17001 kPa, x2 = 0.0251 | 795.37
332.94 K, 17022 kPa, x2 = 0.9698 | 709.37
332.94 K, 18009 kPa, x2 = 0.9698 | 725.81
332.94 K, 18031 kPa, x2 = 0.0251 | 796.18
332.94 K, 19010 kPa, x2 = 0.9698 | 740.47
332.94 K, 19042 kPa, x2 = 0.0251 | 796.95
332.94 K, 20027 kPa, x2 = 0.0251 | 797.73
332.94 K, 20028 kPa, x2 = 0.9698 | 753.7
332.94 K, 20987 kPa, x2 = 0.0251 | 798.46
